Read-outs that look alike come from different tables or passages of the source.
Experiments:
[1] = molecular target: HCV NS3/4A protease complex, BMS strain (UniProt P27958, C1454S/C1711G, species not given/STRAIN_BMS); test: Recombinant HCV NS3/4A protease complex FRET peptide assay (BMS strain); format: biochemical, HCV genotype 1a
In short: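 Recombinant BMS-strain NS3/4A (His-tagged NS4A with three-lysine tail, E. coli) at 2-3 nM preincubated 1 min with compound, then 2 μM ester-linked NS4A/NS4B-based FRET peptide added. Fluorescence followed in real time ~15 min at 25° C. Percent inhibition from slope of linear fluorescence change versus no-compound control.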

[2] = tested on: HCV replicon in Huh7 cells; test: HCV replicon cell-based assay; parameters: species or system HCV strain 1B; conditions: Hepatitis C virus, Huh-7; HCV replicon, Huh7 cells; read-out: EC50 range
[3] = NS3/4A BMS strain; read-out: IC50 range
[4] = read-out: IC50 range; NS3/4A BMS strain

C=C[C@@H]1C[C@]1(NC(=O)[C@@H]1C[C@@H](Oc2nccc3cc(OC)ccc23)CN1C(=O)[C@@H](NC(=O)OC(C)(C)C)C(C)(C)C)C(=O)NS(=O)(=O)C1CC1 [Compound 11]
IC50 [1, 3]: < 0.1 µM
EC50 [2]: < 0.1 µM

C=C[C@@H]1C[C@]1(NC(=O)[C@@H]1C[C@@H](Oc2ccnc(-c3ccc(OC)cc3)c2)CN1C(=O)[C@@H](NC(=O)OC1CCCC1)C(C)(C)C)C(=O)NS(=O)(=O)C1CC1 [Compound 428]
IC50 [1, 3]: < 0.1 µM
EC50 [2]: 0.1 to 1 µM

C=C[C@@H]1CC1(NC(=O)[C@@H]1CC(Oc2nccc3cc(OC)ccc23)CN1C(=O)[C@@H](NC(=O)OCc1ccccc1)C(C)(C)C)C(=O)NS(=O)(=O)C1CC1 (stereo partly drawn) [Compound 64]
IC50 [1, 4]: < 0.1 µM
EC50 [2]: < 0.1 µM

C=C[C@@H]1C[C@]1(NC(=O)[C@@H]1C[C@@H](Oc2nccc3cc(OCC)ccc23)CN1C(=O)[C@@H](NC(=O)OC(C)(C)C)C(C)(C)C)C(=O)NS(=O)(=O)C1CC1 [Compound 42]
IC50 [1, 3]: < 0.1 µM
EC50 [2]: < 0.1 µM

C=CC1C[C@]1(NC(=O)[C@@H]1C[C@@H](Oc2nnc(-n3ccnc3)c3ccccc23)CN1C(=O)[C@@H](NC(=O)OC(C)(C)C)C(C)(C)C)C(=O)NS(=O)(=O)C1CC1 (stereo partly drawn) [Compound 196, BOCNH-P3(L-tert-BuGly)-P2[(4R)-(4-(imidazo-1-yl)phthalazine-1-oxo)-S-proline]-P1(1R,2S Vinyl Acca)-CONHSO2-Cyclopropane]
IC50 [1, 3]: < 0.1 µM
EC50 [2]: 1 to 10 µM

C=C[C@@H]1C[C@]1(NC(=O)[C@@H]1C[C@@H](Oc2cc3c(Cl)nccc3cc2OC)CN1C(=O)[C@@H](NC(=O)OC(C)(C)C)C(C)(C)C)C(=O)NS(=O)(=O)C1CC1 [Compound 262]
IC50 [1, 3]: < 0.1 µM
EC50 [2]: < 0.1 µM

C=C[C@@H]1C[C@]1(NC(=O)[C@@H]1C[C@@H](Oc2ccnc(-c3ccsc3)c2)CN1C(=O)[C@@H](NC(=O)OC1CCCC1)C(C)(C)C)C(=O)NS(=O)(=O)C1CC1 [Compound 430]
IC50 [1, 3]: < 0.1 µM
EC50 [2]: 0.1 to 1 µM

C=CC1C[C@]1(NC(=O)[C@@H]1C[C@@H](Oc2nc(-c3cccnc3)cc3cc(OC)ccc23)CN1C(=O)[C@@H](NC(=O)OC(C)(C)C)C(C)(C)C)C(=O)NS(=O)(=O)C1CC1 (stereo partly drawn) [Compound 328]
IC50 [1, 3]: < 0.1 µM
EC50 [2]: < 0.1 µM

C=C[C@@H]1C[C@]1(NC(=O)[C@@H]1C[C@@H](Nc2nc(-c3ccccc3)cs2)CN1C(=O)[C@@H](NC(=O)OC(C)(C)C)C(C)(C)C)C(=O)NS(=O)(=O)C1CC1 [Compound 53]
IC50 [1, 3]: 0.1 to 1 µM
EC50 [2]: 1 to 10 µM

C=C[C@@H]1C[C@]1(NC(=O)[C@@H]1C[C@@H](Oc2cc(-c3csc(NC(C)C)n3)nc3cc(OC)ccc23)CN1C(=O)[C@@H](NC(=O)OC(C)(C)C)C(C)(C)C)C(=O)NS(=O)(=O)C1CC1 [Compound 370]
IC50 [1, 4]: 0.1 to 1 µM
EC50 [2]: 1 to 10 µM

C=CC1C[C@]1(NC(=O)[C@@H]1C[C@@H](Oc2nccc3cc(C)ccc23)CN1C(=O)[C@@H](NC(=O)OC(C)(C)C)C(C)(C)C)C(=O)NS(=O)(=O)C1CC1 (stereo partly drawn) [Compound 210, BOCNH-P3(L-tert-BuGly)-P2[(4R)-(6-methyl isoquinolin-1-oxo)-S -proline]-P1(1R,2S Vinyl Acca)-CONHSO2-Cyclopropane]
IC50 [1, 3]: < 0.1 µM
EC50 [2]: < 0.1 µM

C=C[C@@H]1C[C@]1(NC(=O)[C@@H]1C[C@@H](Oc2nccc3cc(OC(F)(F)F)ccc23)CN1C(=O)[C@@H](NC(=O)OC(C)(C)C)C(C)(C)C)C(=O)NS(=O)(=O)C1CC1 [Compound 282]
IC50 [1, 3]: < 0.1 µM
EC50 [2]: 0.1 to 1 µM

C=C[C@@H]1C[C@]1(NC(=O)C1C[C@@H](Oc2nc(-c3ccccc3)nc3ccc(OC)cc23)CN1C(=O)[C@@H](N)C(C)(C)C)C(=O)NS(=O)(=O)C1CC1 (stereo partly drawn) [Compound 50]
IC50 [1, 3]: 0.1 to 1 µM
EC50 [2]: 1 to 10 µM

C=CC1C[C@]1(NC(=O)[C@@H]1C[C@@H](Oc2ccnc3c(C(F)(F)F)cccc23)CN1C(=O)[C@@H](NC(=O)OC(C)(C)C)C(C)(C)C)C(=O)NS(=O)(=O)C1CC1 (stereo partly drawn) [Compound 186, BOCNH-P3(L-tert-BuGly)-P2[(4R)-(8-trifluoromethyl quinolin-4-oxo)-S-proline]-P1(1R,2S Vinyl Acca)-CONHSO2-Cyclopropane]
IC50 [1, 3]: < 0.1 µM
EC50 [2]: < 0.1 µM

C=C[C@@H]1C[C@]1(NC(=O)[C@@H]1C[C@@H](Oc2nc(Cl)cc3cc(OC)ccc23)CN1C(=O)[C@@H](NC(=O)OC(C)(C)C)C(C)(C)C)C(=O)NS(=O)(=O)C1CC1 [Compound 40]
IC50 [1, 3]: < 0.1 µM
EC50 [2]: 0.1 to 1 µM

C=C[C@@H]1C[C@]1(NC(=O)C1CC(Oc2nc(-c3ccccc3)nc3ccccc23)CN1C(=O)[C@@H](NC(=O)OC(C)(C)C)C(C)(C)C)C(=O)NS(=O)(=O)C1CC1 (stereo partly drawn) [Compound 47]
IC50 [1, 3]: < 0.1 µM
EC50 [2]: 0.1 to 1 µM

C=C[C@@H]1C[C@]1(NC(=O)[C@@H]1C[C@@H](Oc2cc(-c3ccccc3)ncn2)CN1C(=O)[C@@H](NC(=O)OC(C)(C)C)C(C)(C)C)C(=O)NS(=O)(=O)C1CC1 [Compound 411]
IC50 [1, 3]: < 0.1 µM
EC50 [2]: 0.1 to 1 µM

C=C[C@@H]1C[C@]1(NC(=O)[C@@H]1C[C@@H](Oc2cc(C(F)(F)F)nc3ccc(C)cc23)CN1C(=O)[C@@H](NC(=O)OC(C)(C)C)C(C)(C)C)C(=O)NS(=O)(=O)C1CC1 [Compound 410]
IC50 [1, 3]: < 0.1 µM
EC50 [2]: < 0.1 µM

C=C[C@@H]1C[C@]1(NC(=O)[C@@H]1CC(Oc2nccc3cc(OC)ccc23)CN1C(=O)[C@@H](NC(=O)OC1CCC1)C(C)(C)C)C(=O)NS(=O)(=O)C1CC1 (stereo partly drawn) [Compound 71]
IC50 [1, 3]: < 0.1 µM
EC50 [2]: < 0.1 µM

C=C[C@@H]1C[C@]1(NC(=O)[C@@H]1CC(Oc2nccc3cc(OC)ccc23)CN1C(=O)[C@@H](NC(=O)OC(C)(C)c1ccccc1)C(C)(C)C)C(=O)NS(=O)(=O)C1CC1 (stereo partly drawn) [Compound 72]
IC50 [1, 3]: < 0.1 µM
EC50 [2]: 0.1 to 1 µM

CC[C@@H]1C[C@]1(NC(=O)[C@@H]1C[C@@H](Oc2nccc3c(Cl)cccc23)CN1C(=O)[C@@H](NC(=O)OC(C)(C)C)C(C)(C)C)C(=O)NS(=O)(=O)C1CC1 [Compound 294]
IC50 [1, 3]: < 0.1 µM
EC50 [2]: 0.1 to 1 µM

C=CC1C[C@]1(NC(=O)[C@@H]1C[C@@H](COc2cncc(-c3ccsc3)c2)CN1C(=O)[C@@H](NC(=O)OC)C(C)(C)C)C(=O)NS(=O)(=O)C1CC1 (stereo partly drawn) [Compound 347]
IC50 [1, 4]: 0.1 to 1 µM
EC50 [2]: 10 to 100 µM

C=CC1C[C@]1(NC(=O)[C@@H]1C[C@@H](Oc2nc3c(c4ccccc24)OCC3)CN1C(=O)[C@@H](NC(=O)OC(C)(C)C)C(C)(C)C)C(=O)NS(=O)(=O)C1CC1 (stereo partly drawn) [Compound 219, BOCNH-P3(L-t-BuGly)-P2[(4R)-(2,3-dihydro-1-oxa-4aza -cyclopenta[α]naphthalen-5-yloxy)-S-proline]-P1(1R,2S VinylAcca)-CONHSO2Cyclopropane]
IC50 [1, 3]: < 0.1 µM
EC50 [2]: < 0.1 µM

C=CC1C[C@]1(NC(=O)[C@@H]1C[C@@H](COc2cccc(Br)c2)CN1C(=O)[C@@H](NC(=O)OC)C(C)(C)C)C(=O)NS(=O)(=O)C1CC1 (stereo partly drawn) [Compound 345]
IC50 [1, 3]: 1 to 10 µM
EC50 [2]: 10 to 100 µM

C=C[C@@H]1C[C@]1(NC(=O)[C@@H]1CC(Oc2nc(-c3ccccc3)cc3ccccc23)CN1C(=O)[C@@H](NC(=O)OC(C)(C)C)[C@H](C)O)C(=O)NS(=O)(=O)C1CC1 (stereo partly drawn) [Compound 107]
IC50 [1, 4]: < 0.1 µM
EC50 [2]: 0.1 to 1 µM

C=CC1C[C@]1(NC(=O)[C@@H]1C[C@@H](Oc2nccc(-c3ccco3)n2)CN1C(=O)[C@@H](NC(=O)CC1CC1)C(C)(C)C)C(=O)NS(=O)(=O)C1CC1 (stereo partly drawn) [Compound 339]
IC50 [1, 3]: < 0.1 µM
EC50 [2]: 1 to 10 µM

C=C[C@@H]1C[C@]1(NC(=O)[C@@H]1C[C@@H](Oc2nccc3cc(OC)ccc23)CN1C(=O)[C@@H](NC(=O)OC(C)(C)CC)C(C)(C)C)C(=O)NS(=O)(=O)C1CCC1 [Compound 382]
IC50 [1, 3]: < 0.1 µM
EC50 [2]: 0.1 to 1 µM

C=CC1CC1(NC(=O)C1CC(Oc2nc(Br)c(O)c3ccccc23)CN1C(=O)C(NC(=O)OC(C)(C)C)C(C)(C)C)C(=O)NS(=O)(=O)C1CC1 (stereo not drawn) [Compound 224]
IC50 [1, 3]: < 0.1 µM
EC50 [2]: 0.1 to 1 µM

C=C[C@@H]1C[C@]1(NC(=O)[C@@H]1C[C@@H](Oc2cncc(-c3csc(C)n3)c2)CN1C(=O)[C@@H](NC(=O)OC(C)(C)C)C(C)(C)C)C(=O)NS(=O)(=O)C1CC1 [Compound 433]
IC50 [1, 3]: 0.1 to 1 µM
EC50 [2]: 1 to 10 µM

C=C[C@@H]1C[C@]1(NC(=O)[C@@H]1C[C@@H](Oc2nccc3ccccc23)CN1C(=O)[C@@H](NC(=O)Oc1ccc(F)cc1)C(C)(C)C)C(=O)NS(=O)(=O)C1CC1 [Compound 122]
IC50 [1, 3]: < 0.1 µM
EC50 [2]: 0.1 to 1 µM

C=C[C@@H]1C[C@]1(NC(=O)[C@@H]1C[C@@H](Oc2nccc3c(F)c(OC)ccc23)CN1C(=O)[C@@H](NC(=O)OC(C)(C)C)C(C)(C)C)C(=O)NS(=O)(=O)C1CC1 [Compound 274]
IC50 [1, 3]: < 0.1 µM
EC50 [2]: 0.1 to 1 µM

CC[C@@H]1C[C@]1(NC(=O)[C@@H]1C[C@@H](Oc2nccc3cc(OC)ccc23)CN1C(=O)[C@@H](NC(=O)OC(C)(C)C)C(C)(C)C)C(=O)NS(=O)(=O)C1CC1 [Compound 14]
IC50 [1, 3]: < 0.1 µM
EC50 [2]: < 0.1 µM

C=C[C@@H]1C[C@]1(NC(=O)[C@@H]1C[C@@H](Oc2nccc3ccc(Cl)cc23)CN1C(=O)[C@@H](NC(=O)OC(C)(C)C)C(C)(C)C)C(=O)NS(=O)(=O)C1CC1 [Compound 258]
IC50 [1, 3]: < 0.1 µM
EC50 [2]: < 0.1 µM

C=C[C@@H]1C[C@]1(NC(=O)[C@@H]1C[C@@H](Oc2nccc3cc(OC)ccc23)CN1C(=O)[C@@H](NC(=O)N[C@@H](C)C(=O)OC)C(C)(C)C)C(=O)NS(=O)(=O)C1CC1 [Compound 145]
IC50 [1, 3]: < 0.1 µM
EC50 [2]: 0.1 to 1 µM

C=CC1CC1(NC(=O)[C@@H]1C[C@@H](OCc2ccc3ccccc3c2)CN1C(=O)[C@@H](NC(=O)OC(C)(C)C)C(C)(C)C)C(=O)NS(C)(=O)=O (stereo partly drawn) [Compound 454]
IC50 [1, 3]: 0.1 to 1 µM
EC50 [2]: 1 to 10 µM

C=CC1C[C@]1(NC(=O)[C@@H]1C[C@@H](COc2cccc(-c3cccs3)n2)CN1C(=O)[C@@H](NC(=O)OC)C(C)(C)C)C(=O)NS(=O)(=O)C1CC1 (stereo partly drawn) [Compound 356]
IC50 [1, 3]: 0.1 to 1 µM
EC50 [2]: 1 to 10 µM

Source: patent US7915291B2, “Hepatitis C virus inhibitors” (Bristol-Myers Squibb Company, priority 2002, dated 2011)
